According to article PMC9777073, “A Fenchone Derivative Effectively Abrogates Joint Damage Following Post-Traumatic Osteoarthritis in Lewis Rats” (Cells, 2022):

Target: T1, cannabinoid receptor 1 (CB1) (Homo sapiens, UniProt P21554)
T1 construct: gene CNR1
Assay: cell-based
Design: species or system CHO-K1
Conditions: read-out: Antagonist IC50 RC50
From the text: For agonist analysis, we monitored “evaluation of potency” (EC50) and % efficacy (Max response), which were reflected by increased intracellular cAMP levels detected in cAMP Hunter™ Gs cell lines (CHO-K1 lines) overexpressing human CNR1 (i.e., gene encoding CB1) or CNR2 (i.e., gene encoding CB2). Alternatively, antagonist activity (i.e., inhibitory concentration or IC50) utilized a cAMP Hunter™ Gi cell lines (CHO-K1 lines), detecting an intracellular reduction in cAMP levels in cells overexpressing CNR1 and CNR2. These cell lines are designed to be used in conjunction with the HitHunter® cAMP Assay Detection Kit. Specifically, for agonist assay, cells were subjected to positive controls, known to activate the increase in cAMP for both receptors (agonist control 20 µM Forskolin for CB1 and 25 µM Forskolin for CB2). […] Prior to testing the cell, plating media were exchanged with 10 uL of Assay buffer (HBSS + 10 mM HEPES). Agonist results are expressed as percent efficacy relative to the maximum response of the control ligand (%Effc or EC50), while antagonist results are expressed as percent inhibition of the control ligand (IC50) normalized to the unantagonized vehicle.

T1 sequence (P21554 whole entry): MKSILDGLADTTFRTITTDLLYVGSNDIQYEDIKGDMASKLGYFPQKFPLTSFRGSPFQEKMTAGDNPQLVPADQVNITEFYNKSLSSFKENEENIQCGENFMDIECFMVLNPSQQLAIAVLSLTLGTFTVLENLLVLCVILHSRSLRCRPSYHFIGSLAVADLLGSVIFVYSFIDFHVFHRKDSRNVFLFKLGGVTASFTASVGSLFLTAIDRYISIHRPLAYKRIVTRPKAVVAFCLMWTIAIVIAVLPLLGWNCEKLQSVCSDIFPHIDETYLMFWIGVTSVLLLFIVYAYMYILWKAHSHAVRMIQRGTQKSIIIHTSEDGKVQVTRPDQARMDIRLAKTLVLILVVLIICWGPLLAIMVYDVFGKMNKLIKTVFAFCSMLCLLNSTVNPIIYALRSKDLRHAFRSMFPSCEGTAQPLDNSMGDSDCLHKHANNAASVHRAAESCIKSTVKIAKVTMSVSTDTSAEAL

SMILES: Cc1c(C(=O)NN2CCOCC2)nn(-c2ccc(Cl)cc2Cl)c1-c1ccc(I)cc1 [AM281]
- IC50: 22.4 nM
